Measured values as given in patent US20150202179A1, “FATTY ACID DERIVATIVES FOR USE IN A METHOD OF TREATING DEPRESSION AND ASSOCIATED CONDITIONS” (YISSUM RESEARCH DEVELOPMENT COMPANY OF THE HEBREW …, priority 2012, published 2015).
“Also recorded” adds a separate entry of the source.

How the values were obtained:
serotonin (5HT) levels = test: Serotonin (5HT) determination in brain tissue by HPLC with electrochemical detection; type: in vivo, mice; settings: for 5HT: ng/g wet tissue +/− SEM; for 5HT levels in the hippocampus vs. control / 5HT levels in the hypothalamus vs. control: result in words
Experimental: (§1) Solution of DHBA as internal standard in the concentration of: 1 μg/ml in 0.1M perchloric acid, were prepared. Standard solutions of NE and 5HT in the concentration of 1-0.1 μg/ml in 0.1M perchloric acid were prepared.
(§2) Tissues (hypothalamus and hippocampus) obtained from 6-8 mice were dissected on ice surface and kept at −80 C. Hypothalamus (HT) or hippocampus (HC) from 1 mice were weighted (weight of HT −10-20 mg, HC 30-40 mg) and placed in eppendorf micro-centrifuge tube, 1.5 ml. To each tube was added 120-160 μl of ice cold solution of Perchloric acid and DHBA, homogenized in ice bath on Sonics vibra cell, 3×20 sec., 0.4 watts and centrifuged at 14,000×g at 4° C. 10 min. Supernatant gained was stored in ice before analysis.
(§3) The HPLC system consisted of Jasco PU-980 pump, Jasco AS-950-10 autosampler cooled at 4° C., H3 ODS-125A 3 μm 125 mm×4.6 mm i.d. analytical column (Hichrom, UK) were used. Electrochemical detector Coulochem ESA 5100A with analytical cell model 5011 was used for control detector voltage and record the current. Working electrode was set at potential +350 mV. Control and data collection/processing were handled through Borwin chromatography software.
(§4) The mobile phase composition: A stock buffer was prepared as follows: 20 mM sodium dihydrogenorthophosphate, EDTA 3 mg/l, 1-heptanesulfonic acid 1 g/l were dissolved in 1 liter deionized distilled water and buffered to pH 3.7 using concentrated phosphoric acid. To prepare the mobile phase buffer was mixed with acetonitrile (Baker HPLC analyzed) in the ratio 85:15 (v/v), filtered through a 0.2 μm membrane filter and degassed under vacuum after mixing. Mobile phase flow rate 1 ml/min. Injection volume 20 μl, retention time for DHBA 4.2 min., norepinephrine—3.1 min., 5HT 8.6 min. For calibration curve 1 ug/ml solution of DHBA together with 1.0-0.1 μg/ml solutions of 5HT and NE were used. The ratio between 5HT or NE and DHBA used to calculate the level of 5HT and NE in the sample. Date are given in ng/g wet tissue +/−SEM.

[1] = system: Norepinephrine (NE) levels; test: Norepinephrine (NE) determination in brain tissue by HPLC with electrochemical detection; type: in vivo, mice; settings: for NE: ng/g wet tissue +/− SEM; for norepinephrine levels in the hippocampus vs. control / norepinephrine levels in the hypothalamus vs. control: result in words
Experimental: as §1, §2, §3, §4

[2] = Weight and food consumption in Sabra mice; type: in vivo
Experimental: 140 Female Sabra Mice 12 weeks old are divided to […] 10 mice in each group with equal weight. Mice are administered I.P. with either saline or 1 mg/kg Fluoxetine (PROZAC), compound 1, 4, 5, 7, 10, 11, 12, 13, 14, 15, 19, 26 for a 4 weeks period. On day 30 and on, mice were tested by the following behavioral tests. […]

[3] = Weight and food consumption in OB/OB mice which lack the leptin gene; type: in vivo
Source text: Thus the compounds of the invention can be used to treat conditions that are mediated by the enhancement of leptin levels. In obesity there is high leptin level however the leptin receptors are not responding. High CNS leptin level has anti-depression effect however, if there is tolerance there is no anti depression effect.

[4] = Forced Swim Test (FST), separated BALB/c mice; type: in vivo; settings: compounds 1 mg/kg i.p., imipramine 10 mg/kg i.p.; day 8; in relation to vehicle
Experimental: Forced swim test (FST): The animal is placed in a circular, transparent, plexiglass tank measuring 21 cm in diameter and 46 cm in height containing water 15 cm high, maintained at 23-25° C. […] Also measured is the latency period, the time elapsing, for each animal from immersion in the water tank until the first occurrence of immobility. Since climbing activity is minimal in mice, […].
(§5) 50, 2 month old female BALB/c mice, 10 mice per group, on ad libitum diet were separated (each mouse in a different cage) for 9 days (Separation Stress, a model for depression). On the 7, 8, 9, 34-40 days mice were administered with either vehicle or compounds x, 12 and 15 (1 mg/kg i.p.) or imipramine 10 mg/kg (antidepressant) i.p. and tested in the forced swim test (FST) on day 8.

[5] = Eight Arm Maze Test, separated BALB/c mice; type: in vivo; settings: compounds 1 mg/kg i.p., imipramine 10 mg/kg i.p.; day 34-38; in relation to vehicle (p<0.05)
Experimental: 2 month old female BALB/c mice 10 mice per group were separated (each mouse in a different cage) for 9 days (a model for depression). On days 7, 8, 9, 34-40 days mice were administered with either vehicle or compounds X, 12 and 15 (1 mg/kg i.p.) or imipramine 10 mg/kg (anti-depressant) i.p. and tested in the Eight Arm Maze from day 34-38.

[6] = Novelty Suppressed Feeding Test (NSFT), separated BALB/c mice; type: in vivo; settings: compounds 1 mg/kg i.p., day 9
Experimental: (§6) Novelty suppressed feeding test (NSFT): After the last treatment injection, all food is removed from the cage for 24 hours (water available ad libitum). At the end of this time, the animal is introduced into a 50×50×20 (height) cm wooden arena the floor of which is marked with equal rectangles of 10×10 cm. A pellet of food is placed on an elevated surface in the center of the arena. The time elapsing from the introduction of the animal into the arena until it commences eating (latency to feed) is recorded. The animal is removed from the arena immediately after it begins to eat or after not doing so for 5 min. During the test, the number of lines crossed by the animal is counted as a measure of motor activity, and calibrated for 5 min if the animal started eating before that. After the test, the animal is immediately transferred to its home cage and left to consume a previously weighed amount of food for 10 minutes. On completion of this period the food is weighed again to calculate the home cage food consumption.
as §5, with “34-40,” for “34-40”, “Novel Suppressed Feeding Test” for “the forced swim test (FST)”, “9.” for “8.”
as §6, with “FIGS. 9A-9C show the results of the NSFT. […]” for “Novelty suppressed feeding test (NSFT):”, “hours.” for “hours (water available ad libitum).”, “into” for “into a 50×50×20 (height) cm wooden arena”, “open field test.” for “floor of which is marked with equal rectangles of 10×10 cm.”, “to find” for “elapsing from”, “food was” for “introduction of the animal into the arena until it commences eating (latency to feed) is”

[7] = Neurological score measured by the NSS method; type: in vivo, BALB/c mice; settings: 1 mg/kg i.p.
[8] = Tail Suspension Test, separated BALB/c mice (model for depression); type: in vivo; settings: compounds 1 mg/kg i.p., imipramine 10 mg/kg i.p.; day 7; in relation to vehicle
Source text: Tail suspension test (TST): Animals are suspended upside down by adhesive tape placed 1 cm from the tail tip. The elevation of the animal is 50 cm from the nearest surface. […] Statistical analysis compares the magnitude of immobility (in seconds) between different treatment groups. In this test, antidepressants characteristically cause an increase of the time fraction spent by the animal as active at the expense of the inactivity period.
50, 2 month old female BALB/c mice were separated (each mouse in a different cage) for 9 days period (a model for depression). On days 7, 8, 9, 34-40 mice were administered with either vehicle or compounds X, 12 and 15 (1 mg/kg i.p.) or imipramine 10 mg/kg (anti-depressant) i.p. and tested in the Tail suspension test on day 7 of the experiment (10 mice per group).

| Compound | 5HT (serotonin (5HT) levels; Hippocampus) | 5HT levels in the hippocampus vs. control (serotonin (5HT) levels) | NE ([1]; Hippocampus) | norepinephrine levels in the hippocampus vs. control [1] | 5HT (serotonin (5HT) levels; Hypothalamus) | 5HT levels in the hypothalamus vs. control (serotonin (5HT) levels) | further results |
| --- | --- | --- | --- | --- | --- | --- | --- |
| CCCCC/C=C\C/C=C\CCCCCCCC(=O)N[C@H](CO)CC(C)C [Compound 4, Linoleoyl-L-Leucinol amide] | 380.4 ± 12.8 ng/g | significantly enhanced; also recorded: increased significantly | 302.5 ± 22.4 ng/g | significantly enhanced; also recorded: increase significantly |  |  |  |
| CCCCCCCC/C=C\CCCCCCCC(=O)N[C@H](CO)CC(C)C [Compound 5, Oleoyl-L-Leucinol amide] | 419.8 ± 67.4 ng/g | increased significantly |  |  | 767.2 ± 51.9 ng/g |  |  |
| CCCCCCCC/C=C/CCCCCCCC(=O)N[C@H](CO)C(C)C [Compound 7, Elaidoyl-L-Valinol amide] | 335.4 ± 45.4 ng/g | increased significantly |  |  | 856.5 ± 115.2 ng/g | increased significantly |  |
| CCCCC/C=C\C/C=C\CCCCCCCC(=O)N[C@H](CO)C(C)C [Compound 10, Linoleoyl-L-Valinol amide] | 299.2 ± 22.8 ng/g | significantly enhanced; also recorded: increased significantly | 407.9 ± 48.9 ng/g | significantly enhanced; also recorded: increase significantly |  |  |  |
| CCCCCCCC/C=C\CCCCCCCC(=O)N[C@@H](CO)C(C)C [Compound 11, Oleoyl-D-Valinol] |  |  |  |  | 777.8 ± 79.1 ng/g | increased significantly |  |
| CCCCCCCC/C=C\CCCCCCCCOC(=O)N[C@H](CO)C(C)C [Compound 12, Oleyloxycarbonyl-L-Valinol amide] | 332.1 ± 52.7 ng/g | significantly enhanced; also recorded: increased significantly | 378.9 ± 31.4 ng/g | significantly enhanced; also recorded: increase significantly | 810.5 ± 70.6 ng/g | increased significantly | food consumption [2]: significant decrease; weight (weight loss) [2]: significant weight loss; also recorded: significant decrease; food consumption [3]: did not change; weight (weight loss) [3]: do not produce weight loss; also recorded: did not change; swimming activity in forced swim test [4]: significantly enhanced swimming activity; performance in the Eight Arm Maze [5]: significantly improved performance; food intake in NSFT ([6]; in relation to vehicle and more than imipramine 10 mg/kg): significantly enhanced food intake; motor activity in NSFT ([6]; resembled imipramine 10 mg/kg): enhanced motor activity; neurological score (NSS method) [7]: did not affect neurological score |
| CCCCCCCC/C=C\CCCCCCCCOC(=O)N[C@@H](CO)C(C)C [Compound 13, Oleyloxycarbonyl-D-Valinol amide] | 300.1 ± 41.5 ng/g | significantly enhanced; also recorded: increased significantly | 396.7 ± 44.7 ng/g | significantly enhanced; also recorded: increase significantly | 831.3 ± 29.1 ng/g | increased significantly | NE ([1]; Hypothalamus): 1002 ± 62.7 ng/g |
| CCCCCCCC/C=C\CCCCCCCC(=O)N[C@H](CO)Cc1ccccc1 [Compound 26, Oleoyl-L-phenyl alaninol] |  |  |  | increase significantly |  |  |  |
| CN(C)CCCN1c2ccccc2CCc2ccccc21 [imipramine, reference compound] |  |  |  |  |  |  | swimming activity in forced swim test [4]: significantly enhanced swimming activity; performance in the Eight Arm Maze [5]: significantly improved performance; activity in Tail Suspension Test [8]: significantly enhanced activity |
| Oleyl-amine-carbonyl-D-valinol [Compound 14] | 344 ± 32.4 ng/g | increased significantly | 313.9 ± 48 ng/g | increase significantly | 876.4 ± 126.8 ng/g | increased significantly | 5HT levels in the hippocampus vs. control (serotonin (5HT) levels; listed as compound 14): significantly enhanced; 5HT levels in the hypothalamus vs. control (serotonin (5HT) levels; listed as compound 14): significantly enhanced; NE ([1]; Hypothalamus): 1139.4 ± 43.3 ng/g; norepinephrine levels in the hippocampus vs. control ([1]; listed as compound 14): significantly enhanced; norepinephrine levels in the hypothalamus vs. control [1]: increased significantly; norepinephrine levels in the hypothalamus vs. control ([1]; listed as compound 14): significantly enhanced |
| Oleylamino-D-2-hydroxyvaline amide [Compound 19] | 296.3 ± 33.2 ng/g | significantly enhanced; also recorded: increased significantly | 296.4 ± 24.8 ng/g | significantly enhanced; also recorded: increase significantly |  |  |  |
